Measurements: US6337087B1, “Aqueous pharmaceutical composition comprising an active ingredient which is highly insoluble in water” (Aziende Chimiche Riunite Angelini Francesco A.C.R.A.F. …, priority 1997, dated 2002)
Values after ≈ are worked out from the molar mass of the structure shown.

Assay: initial solubility of the active ingredient
Type: physicochemical
Conditions: active ingredient without liposomes, aqueous

solubility: 3 µg/mL (≈ 9.34 µM)
Structure (SMILES): O=C(O)c1nn(Cc2ccc(Cl)cc2Cl)c2ccccc12 [lonidamine]
